The values below come from US20040234592A1, “Dermatological formulations” (priority 2001, published 2004).

For assay [1], the system named is atrophy induced by topical betamethasone. In words: Betamethasone-induced skin atrophy in mice, concomitant TriAc. Format: in vivo. The note with it: concomitant treatment with topical betamethasone.
Assay [2] has as its system genes important for skin structure and function. The note with it: established models of human skin; cited from earlier work.

In the case of `O=C(O)Cc1cc(I)c(Oc2ccc(O)c(I)c2)c(I)c1` [TriAc, [4-(4-Hydroxy-3-iodophenoxy)-3,5-diiodophenyl]acetic acid], in assay [1], the “atrophy (reduction of total collagen and of cross-linking between collagen bundles in the dermis)” value is “totally prevents the atrophy”. The “expression of genes important for skin structure and function” value in assay [2] is listed as “regulate expression of several genes”.
